# Patent US20230085307A1, “PYRIDAZINONE COMPOUND AND HERBICIDE” (NISSAN CHEMICAL CORPORATION, priority 2019, published 2023)
# Legend:
# [1] = tested on: barnyard grass; assay: Test Example 3: herbicidal effect by foliage application, Wagner pot (Table 18, symbol H); format: in vivo, barnyard grass (Echinochloa crus-galli)
# Procedure, shortened: (§1)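 Plants were sown in alluvial soil held under 0.1–0.5 cm standing water and grown 14 days in a greenhouse at 25–30 °C. An emulsifiable formulation, water-diluted to the set dose, was then sprayed onto the foliage, and effects were scored three weeks later using previously defined criteria.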
# [2] = tested on: Chinese sprangletop; assay: Test Example 3: herbicidal effect by foliage application, Wagner pot (Table 18, symbol D); format: in vivo, chinese sprangletop (Leptochloa chinensis)
# Procedure, shortened: as §1
# [3] = tested on: rice flat sedge; assay: Test Example 3: herbicidal effect by foliage application, Wagner pot (Table 18, symbol E); format: in vivo, rice flat sedge (Cyperus iria)
# Procedure, shortened: as §1
# [4] = tested on: southern crabgrass; assay: Test Example 4: herbicidal effect by soil treatment (Table 19, symbol F); format: in vivo, southern crabgrass (Digitaria ciliaris)
# Procedure, shortened: (§2)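 Herbicidal effect was rated 3 weeks after treatment, using the scoring criteria of an earlier test. The compound, formulated as an emulsion and diluted in water to a set herbicide amount, had been sprayed uniformly on soil over freshly sown seeds. Growth took place in a greenhouse at 25° C. to 30° C.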
# [5] = tested on: green foxtail; assay: Test Example 4: herbicidal effect by soil treatment (Table 19, symbol G); format: in vivo, green foxtail (Setaria viridis)
# Procedure, shortened: as §2
# [6] = tested on: barnyard grass; assay: Test Example 4: herbicidal effect by soil treatment (Table 19, symbol H); format: in vivo, barnyard grass (Echinochloa crus-galli)
# Procedure, shortened: as §2
# [7] = tested on: wild oat; assay: Test Example 4: herbicidal effect by soil treatment (Table 19, symbol I); format: in vivo, wild oat (Avena fatua)
# Procedure, shortened: as §2
# [8] = tested on: blackgrass; assay: Test Example 4: herbicidal effect by soil treatment (Table 19, symbol J); format: in vivo, blackgrass (Alopecurus myosuroides)
# Procedure, shortened: as §2
# [9] = tested on: Italian ryegrass; assay: Test Example 4: herbicidal effect by soil treatment (Table 19, symbol K); format: in vivo, Italian ryegrass (Lolium multiflorum)
# Procedure, shortened: as §2
# [10] = tested on: windgrass; assay: Test Example 4: herbicidal effect by soil treatment (Table 19, symbol L); format: in vivo, windgrass (Apera spica-venti)
# Procedure, shortened: as §2
# [11] = tested on: velvetleaf; assay: Test Example 4: herbicidal effect by soil treatment (Table 19, symbol M); format: in vivo, velvetleaf (Abutilon theophrasti)
# Procedure, shortened: as §2
# [12] = tested on: redroot pigweed; assay: Test Example 4: herbicidal effect by soil treatment (Table 19, symbol N); format: in vivo, redroot pigweed (Amaranthus retroflexus)
# Procedure, shortened: as §2
# [13] = tested on: lambsquarters; assay: Test Example 4: herbicidal effect by soil treatment (Table 19, symbol O); format: in vivo, lambsquarters (Chenopodium album)
# Procedure, shortened: as §2
# [14] = tested on: chickweed; assay: Test Example 4: herbicidal effect by soil treatment (Table 19, symbol P); format: in vivo, common chickweed (Stellaria media)
# Procedure, shortened: as §2
# [15] = tested on: persian speedwell; assay: Test Example 4: herbicidal effect by soil treatment (Table 19, symbol R); format: in vivo, Persian speedwell (Veronica persica)
# Procedure, shortened: as §2
# [16] = tested on: southern crabgrass; assay: Test Example 5: herbicidal effect by foliage application, plastic box (Table 20, symbol F); format: in vivo, southern crabgrass (Digitaria ciliaris); conditions: foliage application
# Procedure, shortened: (§3)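 Foliar spray test: emulsion formulation diluted in water to a set application rate, sprayed onto 14-day-old plants raised in diluvial soil at 25° C to 30° C under glass. Both herbicidal effect and crop effect rated visually three weeks later.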
# [17] = tested on: green foxtail; assay: Test Example 5: herbicidal effect by foliage application, plastic box (Table 20, symbol G); format: in vivo, green foxtail (Setaria viridis); conditions: foliage application
# Procedure, shortened: as §3
# [18] = tested on: barnyard grass; assay: Test Example 5: herbicidal effect by foliage application, plastic box (Table 20, symbol H); format: in vivo, barnyard grass (Echinochloa crus-galli); conditions: foliage application
# Procedure, shortened: as §3
# [19] = tested on: wild oat; assay: Test Example 5: herbicidal effect by foliage application, plastic box (Table 20, symbol I); format: in vivo, wild oat (Avena fatua); conditions: foliage application
# Procedure, shortened: as §3
# [20] = tested on: blackgrass; assay: Test Example 5: herbicidal effect by foliage application, plastic box (Table 20, symbol J); format: in vivo, blackgrass (Alopecurus myosuroides); conditions: foliage application
# Procedure, shortened: as §3
# [21] = tested on: Italian ryegrass; assay: Test Example 5: herbicidal effect by foliage application, plastic box (Table 20, symbol K); format: in vivo, Italian ryegrass (Lolium multiflorum); conditions: foliage application
# Procedure, shortened: as §3
# [22] = tested on: windgrass; assay: Test Example 5: herbicidal effect by foliage application, plastic box (Table 20, symbol L); format: in vivo, windgrass (Apera spica-venti); conditions: foliage application
# Procedure, shortened: as §3
# [23] = tested on: velvetleaf; assay: Test Example 5: herbicidal effect by foliage application, plastic box (Table 20, symbol M); format: in vivo, velvetleaf (Abutilon theophrasti); conditions: foliage application
# Procedure, shortened: as §3
# [24] = tested on: redroot pigweed; assay: Test Example 5: herbicidal effect by foliage application, plastic box (Table 20, symbol N); format: in vivo, redroot pigweed (Amaranthus retroflexus); conditions: foliage application
# Procedure, shortened: as §3
# [25] = tested on: lambsquarters; assay: Test Example 5: herbicidal effect by foliage application, plastic box (Table 20, symbol O); format: in vivo, lambsquarters (Chenopodium album); conditions: foliage application
# Procedure, shortened: as §3
# [26] = tested on: chickweed; assay: Test Example 5: herbicidal effect by foliage application, plastic box (Table 20, symbol P); format: in vivo, common chickweed (Stellaria media); conditions: foliage application
# Procedure, shortened: as §3
# [27] = tested on: false cleavers; assay: Test Example 5: herbicidal effect by foliage application, plastic box (Table 20, symbol Q); format: in vivo, false cleavers (Galium spurium); conditions: foliage application
# Procedure, shortened: as §3
# [28] = tested on: persian speedwell; assay: Test Example 5: herbicidal effect by foliage application, plastic box (Table 20, symbol R); format: in vivo, Persian speedwell (Veronica persica); conditions: foliage application
# Procedure, shortened: as §3
# [29] = AAH 80 g/ha, three weeks after application
# [30] = 320 g/ha, evaluated three weeks after application
structure (smiles),measurement,setting,value
CCCC(=O)Oc1c(OC)nn(C)c(=O)c1-c1c(-c2ccc(OC)c(OC)c2)sc2ccccc12 [1-183],"herbicidal effect on H (barnyard grass), rating 0-5",[1]; 80 g/ha,3 (Herbicidal rate of 40% or more and less than 70%)
same,"herbicidal effect on D (Chinese sprangletop), rating 0-5",[2]; 80 g/ha,2 (Herbicidal rate of 20% or more and less than 40%)
same,"herbicidal effect on E (rice flat sedge), rating 0-5",[3]; 80 g/ha,0 (Herbicidal rate of 5% or less (almost no effect))
same,"F: southern crabgrass, herbicidal effect rating",[4]; AAH 80 g/ha,0 (Herbicidal rate of 5% or less (almost no effect))
same,"G: green foxtail, herbicidal effect rating",[5]; AAH 80 g/ha,0 (Herbicidal rate of 5% or less (almost no effect))
same,"H: barnyard grass, herbicidal effect rating",[6]; AAH 80 g/ha,0 (Herbicidal rate of 5% or less (almost no effect))
same,"I: wild oat, herbicidal effect rating",[7]; AAH 80 g/ha,0 (Herbicidal rate of 5% or less (almost no effect))
same,"J: blackgrass, herbicidal effect rating",[8]; AAH 80 g/ha,0 (Herbicidal rate of 5% or less (almost no effect))
same,"K: Italian ryegrass, herbicidal effect rating",[9]; AAH 80 g/ha,0 (Herbicidal rate of 5% or less (almost no effect))
same,"L: windgrass, herbicidal effect rating",[10]; AAH 80 g/ha,0 (Herbicidal rate of 5% or less (almost no effect))
same,"M: velvetleaf, herbicidal effect rating",[11]; AAH 80 g/ha,0 (Herbicidal rate of 5% or less (almost no effect))
same,"N: redroot pigweed, herbicidal effect rating",[12]; AAH 80 g/ha,0 (Herbicidal rate of 5% or less (almost no effect))
same,"O: lambsquarters, herbicidal effect rating",[13]; AAH 80 g/ha,0 (Herbicidal rate of 5% or less (almost no effect))
same,"P: chickweed, herbicidal effect rating",[14]; AAH 80 g/ha,3 (Herbicidal rate of 40% or more and less than 70%)
same,"R: persian speedwell, herbicidal effect rating",[15]; AAH 80 g/ha,4 (Herbicidal rate of 70% or more and less than 90%)
same,"F: southern crabgrass, herbicidal effect",[16]; [29],1 (Herbicidal rate of 5% or more and less than 20%)
same,"G: green foxtail, herbicidal effect",[17]; [29],4 (Herbicidal rate of 70% or more and less than 90%)
same,"H: barnyard grass, herbicidal effect",[18]; [29],4 (Herbicidal rate of 70% or more and less than 90%)
same,"I: wild oat, herbicidal effect",[19]; [29],0 (Herbicidal rate of 5% or less (almost no effect))
same,"J: blackgrass, herbicidal effect",[20]; [29],0 (Herbicidal rate of 5% or less (almost no effect))
same,"K: Italian ryegrass, herbicidal effect",[21]; [29],1 (Herbicidal rate of 5% or more and less than 20%)
same,"L: windgrass, herbicidal effect",[22]; [29],0 (Herbicidal rate of 5% or less (almost no effect))
same,"M: velvetleaf, herbicidal effect",[23]; [29],1 (Herbicidal rate of 5% or more and less than 20%)
same,"N: redroot pigweed, herbicidal effect",[24]; [29],3 (Herbicidal rate of 40% or more and less than 70%)
same,"O: lambsquarters, herbicidal effect",[25]; [29],3 (Herbicidal rate of 40% or more and less than 70%)
same,"P: chickweed, herbicidal effect",[26]; [29],4 (Herbicidal rate of 70% or more and less than 90%)
same,"Q: false cleavers, herbicidal effect",[27]; [29],2 (Herbicidal rate of 20% or more and less than 40%)
same,"R: persian speedwell, herbicidal effect",[28]; [29],5 (Herbicidal rate of 90% or more (almost completely withered))
Cc1nn(C)c(=O)c(-c2c(-c3ccc4c(c3)OCO4)sc3ccc(F)cc23)c1O [2-090],"herbicidal effect on H (barnyard grass), rating 0-5",[1]; 320 g/ha,5 (Herbicidal rate of 90% or more (almost completely withered))
same,"herbicidal effect on D (Chinese sprangletop), rating 0-5",[2]; 320 g/ha,2 (Herbicidal rate of 20% or more and less than 40%)
same,"herbicidal effect on E (rice flat sedge), rating 0-5",[3]; 320 g/ha,5 (Herbicidal rate of 90% or more (almost completely withered))
same,"herbicidal effect rating, F: southern crabgrass",[4]; 320 g/ha,2 (Herbicidal rate of 20% or more and less than 40%)
same,"herbicidal effect rating, G: green foxtail",[5]; 320 g/ha,3 (Herbicidal rate of 40% or more and less than 70%)
same,"herbicidal effect rating, H: barnyard grass",[6]; 320 g/ha,2 (Herbicidal rate of 20% or more and less than 40%)
same,"herbicidal effect rating, I: wild oat",[7]; 320 g/ha,0 (Herbicidal rate of 5% or less (almost no effect))
same,"herbicidal effect rating, J: blackgrass",[8]; 320 g/ha,2 (Herbicidal rate of 20% or more and less than 40%)
same,"herbicidal effect rating, K: Italian ryegrass",[9]; 320 g/ha,4 (Herbicidal rate of 70% or more and less than 90%)
same,"herbicidal effect rating, L: windgrass",[10]; 320 g/ha,0 (Herbicidal rate of 5% or less (almost no effect))
same,"herbicidal effect rating, M: velvetleaf",[11]; 320 g/ha,5 (Herbicidal rate of 90% or more (almost completely withered))
same,"herbicidal effect rating, N: redroot pigweed",[12]; 320 g/ha,5 (Herbicidal rate of 90% or more (almost completely withered))
same,"herbicidal effect rating, O: lambsquarters",[13]; 320 g/ha,5 (Herbicidal rate of 90% or more (almost completely withered))
same,"herbicidal effect rating, P: chickweed",[14]; 320 g/ha,4 (Herbicidal rate of 70% or more and less than 90%)
same,"herbicidal effect rating, R: persian speedwell",[15]; 320 g/ha,5 (Herbicidal rate of 90% or more (almost completely withered))
same,herbicidal effect on F: southern crabgrass,[16]; [30],4 (Herbicidal rate of 70% or more and less than 90%)
same,herbicidal effect on G: green foxtail,[17]; [30],5 (Herbicidal rate of 90% or more (almost completely withered))
same,herbicidal effect on H: barnyard grass,[18]; [30],5 (Herbicidal rate of 90% or more (almost completely withered))
same,herbicidal effect on I: wild oat,[19]; [30],3 (Herbicidal rate of 40% or more and less than 70%)
same,herbicidal effect on J: blackgrass,[20]; [30],4 (Herbicidal rate of 70% or more and less than 90%)
same,herbicidal effect on K: Italian ryegrass,[21]; [30],5 (Herbicidal rate of 90% or more (almost completely withered))
same,herbicidal effect on L: windgrass,[22]; [30],5 (Herbicidal rate of 90% or more (almost completely withered))
same,herbicidal effect on M: velvetleaf,[23]; [30],5 (Herbicidal rate of 90% or more (almost completely withered))
same,herbicidal effect on N: redroot pigweed,[24]; [30],5 (Herbicidal rate of 90% or more (almost completely withered))
same,herbicidal effect on O: lambsquarters,[25]; [30],5 (Herbicidal rate of 90% or more (almost completely withered))
same,herbicidal effect on P: chickweed,[26]; [30],5 (Herbicidal rate of 90% or more (almost completely withered))
same,herbicidal effect on Q: false cleavers,[27]; [30],4 (Herbicidal rate of 70% or more and less than 90%)
same,herbicidal effect on R: persian speedwell,[28]; [30],5 (Herbicidal rate of 90% or more (almost completely withered))
